`COc1c(C)c2c(c(O)c1OC)C(=O)[C@@H]1[C@@H](C)O[C@@H](C)C[C@H]1C2=O` [Compound 3, (1R,3S,4aR,10aS)-7,8-Dimethoxy-9-hydroxy-1,3,6-trimethyl-3,4,4a,10a-tetrahydro-1H-naphtho[2,3-c]pyran-5,10-dione]: the melting point was 116 to 117 °C.

In turn, `COC1=C(OC)C(=O)c2c(cc(C)c(C(C)=O)c2O)C1=O` [Compound 6, 7-Acetyl-2,3-dimethoxy-8-hydroxy-6-methylnaphthalene-1,4-dione] showed a melting point of 146 to 147 °C.

For the origin of these results see PMC10043937, “Pyranonaphthoquinones and Naphthoquinones from the Stem Bark of Ventilago harmandiana and Their Anti-HIV-1 Activity” (Journal of Natural Products, 2023).
